The text below walks through data of PMC11596599, “Structure Characterization of Four New Sesquiterpene Pyridine Alkaloids from Tripterygium wilfordii Hook. f. and Anti-Inflammatory Activity Evaluations” (Molecules, 2024).

For orientation: viability means the share of living cells, or the viability signal relative to a control. What is called IC50 is the concentration at which inhibition is half-maximal.

“Also recorded” adds a separate entry of the source. Read-outs that look alike come from different tables or passages of the source.

Data set [1] in a line: Cell viability by CCK-8 method. The class given is cell-based. Conditions: human; HEK293 cells, CCK-8, compounds at 100 μM, 48 h; read-out: Cell Viability (%) (n = 3). As to the method: (§1) The effect of the test compounds on the viability of HEK293 cells was determined by the CCK-8 method. Briefly, HEK293 cells were inoculated into 96-well plates with 5 × 10^3 cells per well and incubated at 37 °C with 5% CO2 for 24 h. The cells were treated with test compounds and incubated for 48 h; then, 20 μL of the CCK-8 reagent was added into each well and incubated for another 2 h. The absorbance at 450 nm was measured with a microplate reader to further calculate the cell viability. All experiments were performed in triplicate.
(Formazan colour is commonly taken as a measure of viable cells.)

The test system of the next data set is HEK293 cells. The data set can be described thus: Cell viability by CCK-8 method. The class given is cell-based. Conditions: concentration of 100 μM. As to the method:
as §1

Another data set deals with nitric oxide generation. Particulars: cited from earlier work; for suppressed nitric oxide generation: LPS induced RAW264.7 cells, concentration of 5 μM ref 23; for IC50: LPS induced RAW264.7 cells ref 24, read-out: IC50 (nitric oxide inhibitory effects).
For data set [2], the system named is NF-κB pathway. In words: NF-κB luciferase reporter assay in LPS-induced HEK293/NF-κB-Luc cells. In kind it is cell-based. Conditions: for inhibition at 100 µM / IC50: Homo sapiens; for inhibition at 100 µM: HEK293, 24 h, read-out: NF-κB Inhibitory Rates (%) (n = 3); for IC50: read-out: IC50 (NF-κB inhibition). As to the method: Anti-inflammation bioassays were carried out using the HEK293/NF-κB-Luc cells, which were produced as the described procedure. The HEK293/NF-κB-Luc cells were inoculated into 48-well plates and cultured in DMEM supplemented with 10% fetal bovine serum (FBS) for 16 h. Following treatment with the tested compounds, the cells were simulated with 1 μg/mL of LPS for a duration of 24 h. Then, the cells were rinsed twice with phosphate-buffered saline (PBS, pH 7.4) prior to lysing with passive lysis buffer. Then, the inhibitory effects on NF-κB were analyzed using the luciferase assay system according to the manufacturer’s instructions. All the experiments were performed in triplicate.

Data set [3] has as its system NF-κB pathway. Set-up: method as in PMID 36364101. Particulars: LPS-induced HEK293/NF-κB-Luc cells; previous study ref 26; read-out: IC50 (inhibitory activity on the NF-κB pathway); cited from earlier work.
For data set [4], the system named is cytokines (TNF-α, IL-1β, IL-8, IL-2, IL-4, and IFN-γ). On the set-up: method as in PMID 11374948. Particulars: 10 μg/mL, IL-8, IL-2, IL-4, IFN-γ, inhibitory rates reaching 100% in some cases ref 25; cited from earlier work.
Where [5] appears, read: compounds at 100 μM, 1 μg/mL LPS 24 h.

Turning to `CC(=O)OC[C@]12[C@H](OC(C)=O)[C@H](OC(C)=O)[C@@H]3[C@@H](OC(C)=O)[C@@]14O[C@@]3(C)COC(=O)c1cnccc1C(C)C(C)C(=O)O[C@@H]([C@H](O)[C@@H]2OC(C)=O)[C@]4(C)O` (stereo partly shown) [Compound 6, wilfordinine A], the viability at 48 h, 100 µM in data set [1] was 92.4 ± 7.62%. The “influence on cell viability (in words)” value in the data set with HEK293 cells is listed as “no influence on the cell viability; also recorded: no cytotoxicity”. The “suppressed nitric oxide generation” value with nitric oxide generation is reported as 59.0%. Also, the inhibition at 100 µM in the data set on NF-κB pathway [2] (setting [5]) was greater than 45%. For the same compound, in the data set on NF-κB pathway [2], the IC50 was found to be 9.05 µM.

`CC(=O)OCC12C(OC(C)=O)C(OC(C)=O)C3C(OC(C)=O)C14OC3(C)COC(=O)c1cnccc1CCC(C)(O)C(=O)OC(C(OC(=O)c1ccco1)C2OC(C)=O)C4(C)O` (stereo not shown) [Compound 2, wilfordinine H]: in data set [1], the viability at 48 h, 100 µM is 94.2 ± 5.75%. In the data set with NF-κB pathway [2] (setting [5]), the inhibition at 100 µM was 33.9 ± 2.06%.

Turning to `CC(=O)OC[C@]12[C@H](OC(C)=O)[C@H](OC(C)=O)[C@@H]3[C@@H](OC(C)=O)[C@@]14O[C@@]3(C)COC(=O)c1cccnc1CCC(C)C(=O)O[C@@H]([C@H](OC(=O)c1ccccc1)[C@@H]2OC(C)=O)[C@]4(C)O` (stereo partly shown) [wilforine], the IC50 in the data set on NF-κB pathway [3] was 15.7 µM.

As to `CC(=O)OC[C@]12[C@H](OC(C)=O)[C@H](OC(C)=O)[C@@H]3[C@@H](OC(=O)c4ccccc4)[C@@]14O[C@@]3(C)COC(=O)c1cccnc1C(C)C(C)C(=O)O[C@@H]([C@H](OC(C)=O)[C@@H]2OC(=O)c1ccccc1)[C@]4(C)O` (stereo partly shown) [ebenifoline E-11], the “inhibitory effects on the production of cytokines (in words)” value in data set [4] was “significant inhibitory effects”.

With `CC(=O)OCC12C(OC(C)=O)C(O)C3OC(=O)C(C)C(C)c4ccncc4C(=O)OCC4(C)OC1(C(O)C4C(OC(C)=O)C2OC(C)=O)C3(C)O` (stereo not drawn) [Compound 4, 1β,7β,8β,11-tetraacetoxy-1β,4α,5α-trihydroxy-3α,15-[2′,3′-dimethyl-3′-(3″-carboxy-4″-pyridyl)propanic acid] dicarbolactone dihydro-β-agarofuran], the viability at 48 h, 100 µM in data set [1] stood at 100 ± 2.55%. Moreover, in the data set on HEK293 cells, the “influence on cell viability (in words)” value is “no influence on the cell viability; also recorded: no cytotoxicity”. Further, the inhibition at 100 µM in the data set on NF-κB pathway [2] (setting [5]) was greater than 45%. In the data set on NF-κB pathway [2], the IC50 came to 1.64 µM.

Turning to wilfordatine E, the IC50 with NF-κB pathway [3] was 8.75 µM.

`CC(=O)OC[C@]12[C@H](OC(C)=O)[C@H](OC(C)=O)[C@@H]3[C@@H](OC(C)=O)[C@@]14O[C@@]3(C)COC(=O)c1cccnc1CCC(C)(O)C(=O)O[C@@H]([C@H](O)[C@@H]2OC(C)=O)[C@@]4(C)O` (stereo partly shown) [tripfordine A]: the IC50 in the data set on NF-κB pathway [3] was 0.74 µM.

Consider `CC(=O)OCC12C(OC(C)=O)C(=O)C3C(OC(C)=O)C14OC3(C)COC(=O)c1cccnc1CCC(C)(OC(=O)c1ccoc1)C(=O)OC(C(O)C2OC(C)=O)C4(C)O` (stereo not shown) [tripterygiumine S], for which the IC50 in the data set on nitric oxide generation was 23.8 ± 4.38 µM.

Turning to `CC(=O)OCC12C(OC(C)=O)C(OC(C)=O)C3C(OC(C)=O)C14OC3(C)COC(=O)c1cnccc1C(C)C(C)C(=O)OC(C(OC(C)=O)C2OC(C)=O)C4(C)O` (stereo not shown) [Compound 8, peritassine A], the viability at 48 h, 100 µM in data set [1] worked out at 93.9 ± 6.1%. The “suppressed nitric oxide generation” value in the data set on nitric oxide generation is on record as 8.2%. The inhibition at 100 µM in the data set with NF-κB pathway [2] (setting [5]) was determined as 19.1 ± 3.2%.

`CC(=O)OC[C@]12[C@H](OC(C)=O)[C@H](OC(C)=O)[C@@H]3[C@@H](OC(C)=O)[C@@]14O[C@@]3(C)COC(=O)c1cccnc1CCC(C)C(=O)O[C@@H]([C@H](OC(C)=O)[C@@H]2OC(C)=O)[C@]4(C)O` (stereo partly shown) [euonine]: the “suppressed nitric oxide generation” value in the data set on nitric oxide generation is reported as 54.7%.

For the compound `Cc1ccc(NCCCc2ccccc2)c(N)c1` [JSH23, reference compound], the “NF-κB Inhibitory Rates (%) (n = 3)” value in the data set on NF-κB pathway [2] (setting [5]) was found to be 74.56 ± 1.83%.

In the case of `CC(=O)OC[C@]12[C@H](OC(C)=O)C(=O)[C@@H]3[C@@H](OC(C)=O)[C@@]14O[C@@]3(C)COC(=O)c1cccnc1CCC(C)(OC(C)=O)C(=O)O[C@@H]([C@H](OC(=O)c1ccoc1)[C@@H]2OC(C)=O)[C@]4(C)O` (stereo partly shown) [9′-O-acetyl-7-deacetoxy-7-oxowilfortrine], the 50% inhibitory concentration (IC50) in the data set with nitric oxide generation is 2.59 ± 3.59 µM.

Consider `CC(=O)OC[C@]12[C@H](OC(C)=O)[C@H](OC(C)=O)[C@@H]3[C@@H](OC(=O)c4ccccc4)[C@@]14O[C@@]3(C)COC(=O)c1cccnc1C(C)C(C)C(=O)O[C@@H]([C@H](OC(C)=O)[C@@H]2OC(C)=O)[C@]4(C)O` (stereo partly shown) [congorinine E-1], for which the “inhibitory effects on the production of cytokines (in words)” value in data set [4] is listed as “significant inhibitory effects”.

Consider `CC(=O)OCC12C(OC(C)=O)C(OC(C)=O)C3C(OC(C)=O)C14OC3(C)COC(=O)c1cnccc1C(C)C(C)(O)C(=O)OC(C(OC(C)=O)C2OC(C)=O)C4(C)O` (stereo not shown) [Compound 7, wilfordinine B], for which, in data set [1], the viability at 48 h, 100 µM was determined as 95 ± 36.2%. For the same compound, in the data set with NF-κB pathway [2] (setting [5]), the inhibition at 100 µM was 32.1 ± 5.7%.
